Experimental data published in paper PMC8887546, “Design and Synthesis of Brain Penetrant Glycopeptide Analogues of PACAP With Neuroprotective Potential for Traumatic Brain Injury and Parkinsonism” (Frontiers in drug discovery, 2022).

Tests used:
Assay type in all cases: cell-based
human PAC1 receptor = target: T1, human PAC1 receptor (Homo sapiens, UniProt P41586); experiment: cAMP stimulation in CHO cells expressing PAC1; conditions: for Emax: CHO
T1 construct: expressed in transfected cells; host or cells: CHO cells (G418 selection)
T1 sequence (P41586 21-468): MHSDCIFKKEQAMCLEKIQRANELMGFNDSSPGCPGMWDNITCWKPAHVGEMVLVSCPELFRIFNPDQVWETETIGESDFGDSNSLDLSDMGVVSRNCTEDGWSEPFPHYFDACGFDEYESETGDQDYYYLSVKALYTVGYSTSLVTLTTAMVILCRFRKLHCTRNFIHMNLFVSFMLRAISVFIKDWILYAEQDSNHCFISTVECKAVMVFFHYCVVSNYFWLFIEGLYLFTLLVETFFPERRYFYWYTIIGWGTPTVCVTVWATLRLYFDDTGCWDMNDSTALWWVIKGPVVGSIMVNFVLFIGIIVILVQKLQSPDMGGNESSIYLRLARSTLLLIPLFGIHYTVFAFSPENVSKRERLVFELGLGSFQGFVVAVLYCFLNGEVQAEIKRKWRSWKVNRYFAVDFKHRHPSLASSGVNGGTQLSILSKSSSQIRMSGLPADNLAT
Method in brief: (§1)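 Serum-starved CHO cells expressing human receptors were pre-treated 20 min with 500 μM IBMX, then exposed to agonist concentration curves for 10 min in 500 μM IBMX. cAMP quantified by competition with bovine PKA and ^3H-cAMP (1 h, room temperature), scintillation read.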

human VPAC1 receptor = target: T2, human VPAC1 receptor (Homo sapiens, UniProt P32241); experiment: cAMP stimulation in CHO cells expressing VPAC1; conditions: for Emax: CHO, read-out: VPAC1 Emax; for EC50: read-out: VPAC1 EC50; for Receptor selectivity ratio VPAC1/PAC1: ratio of cAMP EC50 values
T2 construct: expressed in transfected cells; host or cells: CHO cells (G418 selection)
T2 sequence (P32241 31-457): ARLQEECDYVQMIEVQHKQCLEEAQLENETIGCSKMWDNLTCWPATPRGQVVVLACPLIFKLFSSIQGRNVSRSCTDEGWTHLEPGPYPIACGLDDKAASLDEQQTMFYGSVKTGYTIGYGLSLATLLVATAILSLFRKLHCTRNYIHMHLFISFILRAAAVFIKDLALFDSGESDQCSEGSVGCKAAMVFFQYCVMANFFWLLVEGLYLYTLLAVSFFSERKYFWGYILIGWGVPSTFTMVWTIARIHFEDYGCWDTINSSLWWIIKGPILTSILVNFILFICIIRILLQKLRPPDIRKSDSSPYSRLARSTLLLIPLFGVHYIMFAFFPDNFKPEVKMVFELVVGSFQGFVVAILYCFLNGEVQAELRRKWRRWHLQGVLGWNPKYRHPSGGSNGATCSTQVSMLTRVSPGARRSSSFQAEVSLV

human VPAC2 receptor = target: T3, human VPAC2 receptor (Homo sapiens, UniProt P41587); experiment: cAMP stimulation in CHO cells expressing VPAC2; conditions: for Emax: CHO; for Receptor selectivity ratio VPAC2/PAC1 / Receptor selectivity ratio VPAC2/VPAC1: ratio of cAMP EC50 values
T3 construct: expressed in transfected cells; host or cells: CHO cells (G418 selection)
T3 sequence (P41587 24-438): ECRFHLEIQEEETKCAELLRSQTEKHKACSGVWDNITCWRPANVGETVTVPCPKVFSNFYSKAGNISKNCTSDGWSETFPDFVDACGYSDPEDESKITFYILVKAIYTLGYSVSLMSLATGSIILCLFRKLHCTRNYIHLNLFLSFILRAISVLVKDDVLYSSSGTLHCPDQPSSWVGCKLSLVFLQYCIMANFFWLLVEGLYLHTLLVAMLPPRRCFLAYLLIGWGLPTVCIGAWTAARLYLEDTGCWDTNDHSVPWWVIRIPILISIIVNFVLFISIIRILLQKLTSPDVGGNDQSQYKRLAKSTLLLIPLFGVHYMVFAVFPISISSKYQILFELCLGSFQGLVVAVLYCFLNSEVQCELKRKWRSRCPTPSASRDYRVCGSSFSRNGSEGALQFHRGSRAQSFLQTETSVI
Method in brief: as §1

Emax (human PAC1 receptor) [%]	Emax (human VPAC1 receptor) [%]	Emax (human VPAC2 receptor) [%]	EC50 (human PAC1 receptor) [nM]	EC50 (human VPAC1 receptor) [nM]	EC50 (human VPAC2 receptor) [nM]	Receptor selectivity ratio VPAC1/PAC1 (human VPAC1 receptor)	Receptor selectivity ratio VPAC2/PAC1 (human VPAC2 receptor)	Receptor selectivity ratio VPAC2/VPAC1 (human VPAC2 receptor)	Structure (SMILES)
89	107	112	–	–	–	–	–	–	CCC[C@H](NC(=O)[C@H](CCC(N)=O)NC(=O)[C@H](CCCCN)NC(=O)[C@H](CCCNC(=N)N)NC(=O)[C@H](Cc1ccc(O)cc1)NC(=O)[C@H](CCCNC(=N)N)NC(=O)[C@H](CO)NC(=O)[C@H](Cc1ccc(O)cc1)NC(=O)[C@H](CO)NC(=O)[C@H](CC(=O)O)NC(=O)[C@@H](NC(=O)[C@H](Cc1ccccc1)NC(=O)[C@@H](NC(=O)[C@H](C)NC(=O)[C@H](CC(=O)O)NC(=O)[C@@H](CO)NC(=O)[C@@H](N)Cc1c[nH]cn1)[C@@H](C)CC)[C@@H](C)O)C(=O)N[C@@H](C)C(=O)N[C@H](C(=O)N[C@@H](CCCCN)C(=O)N[C@@H](CCCCN)C(=O)N[C@@H](Cc1ccc(O)cc1)C(=O)N[C@@H](CC(C)C)C(=O)N[C@@H](C)C(=O)N[C@@H](C)C(=O)N[C@H](C(=O)N[C@@H](CC(C)C)C(=O)N[C@@H](CO[C@@H]1O[C@H](CO)[C@@H](O)[C@H](O)[C@H]1O)C(N)=O)C(C)C)C(C)C [CRA3010]
35	36	31	> 2500	415	> 2500	–	–	–	CCCC[C@H](NC(=O)CN(C)C(=O)[C@H](CC(=O)O)NC(=O)[C@@H](CO)NC(=O)[C@H](Cc1c[nH]cn1)NC(C)=O)C(=O)N[C@@H](Cc1ccccc1)C(=O)N[C@H](C(=O)N[C@@H](CC(=O)O)C(=O)N[C@@H](CO)C(=O)N[C@@H](Cc1ccc(O)cc1)C(=O)N[C@@H](CO)C(=O)N[C@@H](CCCNC(=N)N)C(=O)N[C@@H](Cc1ccc(O)cc1)C(=O)N[C@@H](CCCNC(=N)N)C(=O)N[C@@H](CCCCN)C(=O)N[C@@H](CCC(N)=O)C(=O)N[C@@H](CCC)C(=O)N[C@@H](C)C(=O)N[C@H](C(=O)N[C@@H](CCCCN)C(=O)N[C@@H](CCCCN)C(=O)N[C@@H](Cc1ccc(O)cc1)C(=O)N[C@@H](CC(C)C)C(=O)N[C@@H](C)C(=O)N[C@@H](C)C(=O)N[C@H](C(=O)N[C@@H](CC(C)C)C(=O)N[C@@H](CO[C@@H]1O[C@H](CO)[C@@H](O)[C@H](O)[C@H]1O)C(N)=O)C(C)C)C(C)C)[C@@H](C)O [Ac-CRA 3018]
80	118	107	81.7	214	1330	2.62	16.30	6.22	CCC[C@H](NC(=O)[C@H](CCC(N)=O)NC(=O)[C@H](CCCCN)NC(=O)[C@H](CCCNC(=N)N)NC(=O)[C@H](Cc1ccc(O)cc1)NC(=O)[C@H](CCCNC(=N)N)NC(=O)[C@H](CO)NC(=O)[C@H](Cc1ccc(O)cc1)NC(=O)[C@H](CO)NC(=O)[C@H](CC(=O)O)NC(=O)[C@@H](NC(=O)[C@H](Cc1ccccc1)NC(=O)[C@@H](NC(=O)CNC(=O)[C@H](CC(=O)O)NC(=O)[C@@H](CO)NC(=O)[C@@H](N)Cc1c[nH]cn1)C(C)C)[C@@H](C)O)C(=O)N[C@@H](C)C(=O)N[C@H](C(=O)N[C@@H](CCCCN)C(=O)N[C@@H](CCCCN)C(=O)N[C@@H](Cc1ccc(O)cc1)C(=O)N[C@@H](CC(C)C)C(=O)N[C@@H](C)C(=O)N[C@@H](C)C(=O)N[C@H](C(=O)N[C@@H](CC(C)C)C(=O)N[C@@H](CO[C@@H]1O[C@H](CO)[C@@H](O)[C@H](O)[C@H]1O)C(N)=O)C(C)C)C(C)C [CRA 3012]
72	104	92	448	120	866	0.27	1.93	7.22	CCC[C@H](NC(=O)[C@H](CCC(N)=O)NC(=O)[C@H](CCCCN)NC(=O)[C@H](CCCNC(=N)N)NC(=O)[C@H](Cc1ccc(O)cc1)NC(=O)[C@H](CCCNC(=N)N)NC(=O)[C@H](CO)NC(=O)[C@H](Cc1ccc(O)cc1)NC(=O)[C@H](CO)NC(=O)[C@H](CC(=O)O)NC(=O)[C@@H](NC(=O)[C@H](Cc1ccccc1)NC(=O)[C@@H](NC(=O)CNC(=O)[C@H](CC(=O)O)NC(=O)[C@@H](CO)NC(=O)[C@@H](N)Cc1c[nH]cn1)C(C)(C)C)[C@@H](C)O)C(=O)N[C@@H](C)C(=O)N[C@H](C(=O)N[C@@H](CCCCN)C(=O)N[C@@H](CCCCN)C(=O)N[C@@H](Cc1ccc(O)cc1)C(=O)N[C@@H](CC(C)C)C(=O)N[C@@H](C)C(=O)N[C@@H](C)C(=O)N[C@H](C(=O)N[C@@H](CC(C)C)C(=O)N[C@@H](CO[C@@H]1O[C@H](CO)[C@@H](O)[C@H](O)[C@H]1O)C(N)=O)C(C)C)C(C)C [CRA3015]
92	93	91	0.84	0.52	55.6	0.62	66.19	106.92	[2H]C([2H])([2H])C([2H])(C([2H])([2H])[2H])[C@]([2H])(NC(=O)[C@H](C)NC(=O)[C@H](C)NC(=O)[C@H](CC(C)C)NC(=O)[C@H](Cc1ccc(O)cc1)NC(=O)[C@H](CCCCN)NC(=O)[C@H](CCCCN)NC(=O)[C@@H](NC(=O)[C@H](C)NC(=O)[C@H](CC(C)C)NC(=O)[C@H](CCC(N)=O)NC(=O)[C@H](CCCCN)NC(=O)[C@H](CCCNC(=N)N)NC(=O)[C@H](Cc1ccc(O)cc1)NC(=O)[C@H](CCCNC(=N)N)NC(=O)[C@H](CO)NC(=O)[C@H](Cc1ccc(O)cc1)NC(=O)[C@H](CO)NC(=O)[C@H](CC(=O)O)NC(=O)[C@@H](NC(=O)[C@H](Cc1ccccc1)NC(=O)[C@@H](NC(=O)CNC(=O)[C@H](CC(=O)O)NC(=O)[C@H](CO)NC(=O)[C@@H](N)Cc1c[nH]cn1)[C@@H](C)CC)[C@@H](C)O)C(C)C)C(=O)N[C@@H](CC(C)C)C(=O)N[C@@H](CO[C@@H]1O[C@H](CO)[C@@H](O[C@@H]2O[C@H](CO)[C@@H](O)[C@H](O)[C@H]2O)[C@H](O)[C@H]1O)C(N)=O [Compound 2LS98Cell]
93	109	105	25.4	28.6	291	1.13	11.46	10.17	CCC[C@H](NC(=O)CNC(=O)[C@H](CC(=O)O)NC(=O)[C@@H](CO)NC(=O)[C@@H](N)Cc1c[nH]cn1)C(=O)N[C@@H](Cc1ccccc1)C(=O)N[C@H](C(=O)N[C@@H](CC(=O)O)C(=O)N[C@@H](CO)C(=O)N[C@@H](Cc1ccc(O)cc1)C(=O)N[C@@H](CO)C(=O)N[C@@H](CCCNC(=N)N)C(=O)N[C@@H](Cc1ccc(O)cc1)C(=O)N[C@@H](CCCNC(=N)N)C(=O)N[C@@H](CCCCN)C(=O)N[C@@H](CCC(N)=O)C(=O)N[C@@H](CCC)C(=O)N[C@@H](C)C(=O)N[C@H](C(=O)N[C@@H](CCCCN)C(=O)N[C@@H](CCCCN)C(=O)N[C@@H](Cc1ccc(O)cc1)C(=O)N[C@@H](CC(C)C)C(=O)N[C@@H](C)C(=O)N[C@@H](C)C(=O)N[C@H](C(=O)N[C@@H](CC(C)C)C(=O)N[C@@H](CO[C@@H]1O[C@H](CO)[C@@H](O)[C@H](O)[C@H]1O)C(N)=O)C(C)C)C(C)C)[C@@H](C)O [CRA 3016]
85	104	112	–	–	–	–	–	–	CCCC[C@H](NC(=O)CN(C)C(=O)[C@H](CC(=O)O)NC(=O)[C@@H](CO)NC(=O)[C@@H](N)Cc1c[nH]cn1)C(=O)N[C@@H](Cc1ccccc1)C(=O)N[C@H](C(=O)N[C@@H](CC(=O)O)C(=O)N[C@@H](CO)C(=O)N[C@@H](Cc1ccc(O)cc1)C(=O)N[C@@H](CO)C(=O)N[C@@H](CCCNC(=N)N)C(=O)N[C@@H](Cc1ccc(O)cc1)C(=O)N[C@@H](CCCNC(=N)N)C(=O)N[C@@H](CCCCN)C(=O)N[C@@H](CCC(N)=O)C(=O)N[C@@H](CCC)C(=O)N[C@@H](C)C(=O)N[C@H](C(=O)N[C@@H](CCCCN)C(=O)N[C@@H](CCCCN)C(=O)N[C@@H](Cc1ccc(O)cc1)C(=O)N[C@@H](CC(C)C)C(=O)N[C@@H](C)C(=O)N[C@@H](C)C(=O)N[C@H](C(=O)N[C@@H](CC(C)C)C(=O)N[C@@H](CO[C@@H]1O[C@H](CO)[C@@H](O)[C@H](O)[C@H]1O)C(N)=O)C(C)C)C(C)C)[C@@H](C)O [CRA3018]
